Assay results reported in US20250031733A1, “Mint Flavor Compositions” (The Procter & Gamble Company, priority 2020, published 2025).

What was measured:
[1] = Expert sensory testing of racemic menthol vs (−)-menthol in toothpaste (CREST Cavity) with standard spearmint flavor; assay type: in vivo
Method: In separate, unpublished internal experiments, perceptual experiences of racemic menthol are quantified via expert sensory testing. The use of a standard spearmint flavor (minimizing extra menthol contribution) compared racemic menthol to (−)-menthol in a toothpaste formulation (CREST Cavity). There are several sensory observations taken from these experiments. […] These aromatic notes appear during brushing and disappear after 5-10 minutes post expectoration and are more pronounced as concentrations increase.

[2] = Comparison of cooling attributes of (−)-menthol and racemic menthol in toothpaste (Crest Cavity formulation); assay type: in vivo
Description: The following data helps support the use of racemic menthol to reduce costs of mint flavor compositions herein described. From internal unpublished research, Table B compares replacing (−)-menthol with a racemic menthol in a 1:1 in a toothpaste formulation. Such a direct replacement is not preferred given the reduced cooling profile and olfactory differences; however, a portion of L-menthol is preferably replaced by racemic-menthol to gain cost efficiency while minimizing impact to the overall mint flavor profiles.
This value represents the concentration of a coolant where 50% of its maximal cooling is observed.

EC 50 ([2]; concentration of coolant where 50% of maximal cooling is observed): 1,250 to 1,500 parts per million
SMILES: CC1CCC(C(C)C)C(O)C1 (racemic) [Racemic Menthol]
less potent than (−)-menthol for cooling [1]: 25-30%
Potency compared to L-Menthol [2]: ~0.65-0.7x
Time Point at Maximum Cooling [2]: ~1 min
Maximum Cooling (0-60 scale) ([2]; 60 = greatest amount of cooling, 0 = least): 35
Maximum Longevity ([2]; cooling): Up to 20 minutes
